Assay in all cases: NCI tumour cell line growth inhibition, 48 h
In assay [1] the test system is 786-0.
For assay [2], the system named is A549.
Assay [3] concerns ACHN.
Assay [4] deals with CCRF-CEM.
Assay [5] concerns HCT-116.
Assay [6] relates to HCT-15.
Assay [7] concerns HL-60.
The test system of assay [8] is IGROV-1.
The test system of assay [9] is MCF7.
For assay [10], the system named is MDA-MB-231.
Assay [11] relates to NCI-H460.
The subject of assay [12] is OVCAR-5.
The subject of assay [13] is OVCAR-8.
The test system of assay [14] is PC-3.
In assay [15] the test system is SF-268.
For assay [16], the system named is SK-MEL-28.
Assay [17] has as its system SK-OV-3.
Assay [18] relates to SN12C.
For assay [19], the system named is T47D.
Assay [20] concerns U-251.

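Compound exposure: 48 hours, 5 concentrations, 96-well plates. GI50: concentration for 50% inhibition of growth.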 Calls of active or inactive are those of the source. Rule as the data show it: active = GI50 up to about 1.1 µM and inactive = higher. A value given as a limit tells only on which side of the number the result lay.

In the case of `COc1ccc(OC)c(CCc2cc(OC)ccc2OC)c1`, the GI50 was 3.17 µM (inactive) in assay [1]; 5.28 µM (inactive) in assay [2]; > 6.93 µM (inactive) in assay [3]; 2.9 µM (inactive) in assay [4]; 0.59 µM (active) in [5]; 0.34 µM in [6]. For the same molecule, the GI50 in assay [7] is 1.5 µM (inactive); in [8] it was 1.69 µM (inactive); in assay [9], 0.358 µM (active); in [10], 3.66 µM (inactive); in [11] it was 1.71 µM (inactive); in [12] it was > 8.71 µM (inactive). Moreover, the GI50 in assay [13] is 2.86 µM (inactive); in [14], 2.3 µM (inactive); in [15], 7.76 µM (inactive); in assay [16], 3.28 µM (inactive); in assay [17] it was 4.33 µM (inactive); in [18], 6.98 µM (inactive). The GI50 is > 2.12 µM (inactive) in assay [19] and 4.81 µM (inactive) in assay [20].

As for `O=C1NN=C(O)C2C3c4ccccc4C(c4ccccc43)C12` (configuration not stated), the GI50 in assay [1] was > 100 µM (inactive); in assay [2], > 100 µM (inactive); in assay [3] it was > 100 µM (inactive); in [4], > 100 µM (inactive); in assay [5], > 100 µM (inactive); in assay [6] it was above 100 µM. Moreover, the GI50 in assay [7], in [8], in assay [9], in assay [10], in [11] and in [12] was > 100 µM (inactive) each time. For the same molecule, the GI50 in assay [13], in assay [14], in [15], in assay [16], in assay [17] and in [18] was > 100 µM (inactive) throughout. For the same molecule, the GI50 in assay [19] and in assay [20] was > 100 µM (inactive) throughout.

For `CSc1c(C(=O)Nc2ccc(C)cc2)c(N)nn1-c1ccccc1`, the GI50 in [1] is 19.9 µM (inactive); in [2] it was 27.3 µM (inactive); in [3], 43.8 µM (inactive); in [4], > 100 µM (inactive); in [5], 49.4 µM (inactive); in [6], above 100 µM. For the same molecule, the GI50 was > 100 µM (inactive) in assay [7]; 36.1 µM (inactive) in assay [8]; > 100 µM (inactive) in assay [9]; 40.6 µM (inactive) in [10]; 3.55 µM (inactive) in assay [11]; > 100 µM (inactive) in [12]. In addition, the GI50 in assay [14] is 39.5 µM (inactive); in [15], 46 µM (inactive); in [16], 55.1 µM (inactive); in assay [17] it was 64.6 µM (inactive); in assay [18], > 100 µM (inactive); in [19] it was 98.9 µM (inactive). The GI50 in assay [20] is 28.3 µM (inactive).

With `CCOC(=O)C(=[N+]=[N-])C(=O)CSC#N`, the GI50 was > 100 µM (inactive) in assay [1]; 97.7 µM (inactive) in assay [2]; 22.3 µM (inactive) in [3]; 35.1 µM (inactive) in assay [4]; 33 µM (inactive) in [5]; 51.4 µM in assay [6]. For the same molecule, the GI50 in [7] is 39.3 µM (inactive); in [8], > 100 µM (inactive); in [9] it was 38.4 µM (inactive); in assay [10] it was 82.2 µM (inactive); in assay [12] it was > 100 µM (inactive); in assay [13], 46 µM (inactive). Further, the GI50 is > 100 µM (inactive) in assay [14]; > 100 µM (inactive) in assay [15]; > 100 µM (inactive) in [16]; > 100 µM (inactive) in assay [17]; 25.6 µM (inactive) in assay [18]; > 100 µM (inactive) in [19]. The GI50 in assay [20] was 46.5 µM (inactive).

As to `CCOC(=O)c1nc2ccc(C(F)(F)F)cc2nc1Oc1ccc(F)cc1`, the GI50 in assay [1] was > 100 µM (inactive); in assay [3], > 100 µM (inactive); in [4], > 100 µM (inactive); in assay [5], > 100 µM (inactive); in assay [6], above 100 µM; in assay [7], > 100 µM (inactive). The GI50 in assay [8], in assay [9], in assay [10], in assay [11], in assay [13] and in assay [14] was > 100 µM (inactive) throughout. Also, the GI50 in [15], in assay [16], in assay [17], in assay [19] and in assay [20] was > 100 µM (inactive) each time.

`O=C(/C=C(\Nc1ccccc1O)c1ccccc1)C(=O)NC12CC3CC(CC(C3)C1)C2`: the GI50 was > 10 µM (inactive) in assay [1]; > 10 µM (inactive) in assay [3]; 4.33 µM (inactive) in assay [4]; above 10 µM in assay [6]; 3.52 µM (inactive) in assay [7]; > 10 µM (inactive) in assay [8]. Besides, the GI50 in assay [9] is > 10 µM (inactive); in assay [10] it was > 10 µM (inactive); in [11] it was > 10 µM (inactive); in [12], 8.45 µM (inactive); in [13] it was > 10 µM (inactive); in assay [14] it was 5.65 µM (inactive). For the same molecule, the GI50 in [15], in [16], in assay [17], in [18], in assay [19] and in assay [20] was > 10 µM (inactive) each time.

Take `c1ccc2c3c([nH]c2c1)C1c2[nH]c4ccccc4c2CCN1CC3`: the GI50 was 12.6 µM (inactive) in [1]; 14.7 µM (inactive) in [2]; 13.8 µM (inactive) in [3]; 13.5 µM (inactive) in assay [4]; 10.2 µM (inactive) in assay [5]; 11 µM in assay [6]. For the same molecule, the GI50 in assay [7] was 16.8 µM (inactive); in assay [8], 12.7 µM (inactive); in [9], 10.1 µM (inactive); in assay [10], 14.7 µM (inactive); in [11] it was 6.85 µM (inactive); in assay [12], 19.5 µM (inactive). Further, the GI50 in [13] is 8.18 µM (inactive); in assay [14] it was 12.9 µM (inactive); in [15], 14.4 µM (inactive); in assay [16], 15.2 µM (inactive); in [17] it was 14.1 µM (inactive); in assay [18], 15.2 µM (inactive). In addition, the GI50 in assay [19] is 14.9 µM (inactive).

For `Cc1nc(-c2cc3c(ccc4ccccc43)oc2=O)cc2c1c(=O)oc1ccc3ccccc3c12`, the GI50 in assay [1] is > 100 µM (inactive); in assay [2], > 100 µM (inactive); in assay [3] it was > 100 µM (inactive); in assay [4] it was > 100 µM (inactive); in [5], > 100 µM (inactive); in assay [6] it was above 100 µM. Also, the GI50 in assay [7], in assay [8], in assay [9], in [10], in assay [11] and in assay [12] was > 100 µM (inactive) each time. Also, the GI50 in [13], in [14], in [15], in [16], in [17] and in [19] was > 100 µM (inactive) throughout. Moreover, the GI50 in [20] was > 100 µM (inactive).

Turning to `C=CC[C@H]1O[Si](C(C)(C)C)(C(C)(C)C)[C@H](C)[C@H]1C`, the GI50 in [1] is > 100 µM (inactive); in assay [2], > 100 µM (inactive); in assay [3], 39.4 µM (inactive); in assay [4], > 100 µM (inactive); in assay [5], > 100 µM (inactive); in assay [6], above 100 µM. The GI50 in [7], in assay [8], in assay [9], in [10], in assay [12] and in assay [13] was > 100 µM (inactive) each time. For the same molecule, the GI50 in assay [14], in assay [16], in assay [17], in assay [18], in assay [19] and in assay [20] was > 100 µM (inactive) in each case.

`COc1ccc(C2C(C=O)C(N3CCN(C)CC3)=Nc3nc4ccccc4n32)cc1` (configuration not stated): the GI50 in assay [1] was 20 µM (inactive); in [2] it was 17.2 µM (inactive); in [3] it was 18.2 µM (inactive); in [4], 2.31 µM (inactive); in [5], 14.6 µM (inactive); in assay [6] it was 17.8 µM. Also, the GI50 was 2.09 µM (inactive) in assay [7]; 16.3 µM (inactive) in assay [8]; 13.2 µM (inactive) in assay [9]; 12.1 µM (inactive) in assay [10]; 25.2 µM (inactive) in assay [11]; 23.3 µM (inactive) in [12]. Further, the GI50 is 16.2 µM (inactive) in [13]; 16.3 µM (inactive) in assay [14]; 16.6 µM (inactive) in assay [15]; 17 µM (inactive) in assay [16]; 17.9 µM (inactive) in assay [18]; 11.7 µM (inactive) in assay [19]. Moreover, the GI50 in [20] is 17.7 µM (inactive).

Turning to `SCCSCCCSCCS`, the GI50 was > 100 µM (inactive) in assay [1]; > 100 µM (inactive) in assay [2]; 10.5 µM (inactive) in assay [4]; > 100 µM (inactive) in assay [5]; above 100 µM in assay [6]; 9.31 µM (inactive) in assay [7]. Further, the GI50 in assay [8] is 49.2 µM (inactive); in assay [9], 70.8 µM (inactive); in assay [10], 91.6 µM (inactive); in [11], 31.1 µM (inactive); in assay [12] it was > 100 µM (inactive); in assay [13], > 100 µM (inactive). Moreover, the GI50 in assay [14] is 20 µM (inactive); in assay [15], > 100 µM (inactive); in assay [16], > 100 µM (inactive); in assay [17], > 100 µM (inactive); in assay [18] it was > 100 µM (inactive); in [19] it was 50.2 µM (inactive). In addition, the GI50 in assay [20] was > 100 µM (inactive).
